# Source: patent US6180599A, “Pharmaceutical composition, containing medium-chain fatty acids as active ingredients, for dental caries and periodontal disease” (priority 1997, dated 2001)
# Experiments:
# [1] = system: cariogenic plaque bacteria; experiment: Inhibitory effect on extracellular polysaccharide synthesis (summary); assay type: cell-based, Streptococcus, Lactobacillus and Actinomyces; details: 1 mM; ranking
# Procedure: (§1) In order to identify the effect by which medium-chain fatty acids inhibit plaque matrix formation, inhibitory effect and concentration of extracellular polysaccharide synthesis were determined in seven kinds of standard cariogenic plaque bacteria. Also, the inhibitory effect of extracellular polysaccharide synthesis for 20 kinds of cariogenic plaque bacteria, separated from the human oral cavity, was measured. Liquid culture media used were: Todd-Hewitt broth of Streptococcus, Lactobacilli MRS broth of Lactobacillus and Brain Heart Infusion broth of Actinomyces. 0.1 ml of bacterial (or cell) suspension (OD600 =0.5) of each bacteria was inoculated to 5.9 ml of culture media containing 1 mM of medium-chain fatty acids and 2% of glucose, and was cultured for 24^~ 48 hours in 10% CO2 incubator. After culturing, the resultant was centrifuged to precipitate at 5,000×g for 15 minutes, then soluble extracellular polysaccharide was separated and purified from the supernatant and insoluble extracellular polysaccharide from the cell pellet, and then these were quantified. So the experimental results that represent inhibitory effect of medium-chain fatty acids upon extracellular polysaccharide synthesis, are shown in table 1, 2, 3 and 4.
# [2] = system: cariogenic plaque bacteria (standard strains); experiment: Inhibitory effect of acid production, standard strains; assay type: cell-based, Streptococcus, Lactobacillus and Actinomyces; details: ranking; FIG. 1
# Procedure: In order to identify the action by which medium-chain fatty acids inhibit acid production, the inhibitory effect and concentration of acid production were determined in seven kinds of standard cariogenic plaque bacteria. Also, the inhibitory effect of acid production for 20 kinds of cariogenic plaque bacteria, separated from the human oral cavity, was assayed. Liquid culture media used were: Todd-Hewitt broth of Streptococcus, Lactobacilli MRS broth of Lactobacillus and Brain Heart Infusion broth of Actinomyces. […] The final pH of the culture medium was measured after culturing for 24^~ 48 hours in 10% CO2 incubator.
# [3] = system: Streptococcus; experiment: Inhibitory effect on extracellular polysaccharide synthesis, summary over Streptococcus standard strains; assay type: cell-based; details: 1 mM, compared with control group, range over strains, read-out: synthesis of soluble extracellular polysaccharide inhibited by
# Procedure: as §1, with “quantified.” for “quantified. So the experimental results that represent inhibitory effect of medium-chain fatty acids upon extracellular polysaccharide synthesis, are shown in table 1, 2, 3 and 4.”
# [4] = system: L. casei ATCC 4646; experiment: Inhibitory effect on extracellular polysaccharide synthesis, standard strain; assay type: cell-based, Lactobacillus casei
# Procedure: as §1, with “quantified.” for “quantified. So the experimental results that represent inhibitory effect of medium-chain fatty acids upon extracellular polysaccharide synthesis, are shown in table 1, 2, 3 and 4.”
# [5] = system: L. casei ATCC 27216; experiment: as above; assay type: cell-based, Lactobacillus casei; details: 1 mM, 2% glucose, 24-48 hours
# Procedure: as §1, with “quantified.” for “quantified. So the experimental results that represent inhibitory effect of medium-chain fatty acids upon extracellular polysaccharide synthesis, are shown in table 1, 2, 3 and 4.”
# [6] = Extracellular polysaccharide in liquid medium with fatty acid, no bacteria
# Procedure: as §1, with “quantified.” for “quantified. So the experimental results that represent inhibitory effect of medium-chain fatty acids upon extracellular polysaccharide synthesis, are shown in table 1, 2, 3 and 4.”
# [7] = system: Lactobacillus; experiment: Inhibitory effect on extracellular polysaccharide synthesis, summary over Lactobacillus standard strains; assay type: cell-based; details: 1 mM, compared with control group, according to strains, read-out: synthesis of soluble extracellular polysaccharide inhibited/reduced by
# Procedure: as §1, with “quantified.” for “quantified. So the experimental results that represent inhibitory effect of medium-chain fatty acids upon extracellular polysaccharide synthesis, are shown in table 1, 2, 3 and 4.”
# [8] = system: S. sanguis 10556; experiment: Inhibitory effect on extracellular polysaccharide synthesis, standard strain; assay type: cell-based; details: 1 mM
# Procedure: as §1, with “quantified.” for “quantified. So the experimental results that represent inhibitory effect of medium-chain fatty acids upon extracellular polysaccharide synthesis, are shown in table 1, 2, 3 and 4.”
# [9] = system: A. viscosus ATCC 15987; experiment: as above; assay type: cell-based; details: 1 mM, 2% glucose, 24-48 hours
# Procedure: as §1, with “quantified.” for “quantified. So the experimental results that represent inhibitory effect of medium-chain fatty acids upon extracellular polysaccharide synthesis, are shown in table 1, 2, 3 and 4.”
# [10] = system: S. mutans 10449; experiment: as above; assay type: cell-based, Streptococcus mutans; details: 1 mM
# Procedure: as §1, with “quantified.” for “quantified. So the experimental results that represent inhibitory effect of medium-chain fatty acids upon extracellular polysaccharide synthesis, are shown in table 1, 2, 3 and 4.”
# [11] = system: S. mutans BHT; experiment: as above; assay type: cell-based, Streptococcus mutans; details: 1 mM
# Procedure: as §1, with “quantified.” for “quantified. So the experimental results that represent inhibitory effect of medium-chain fatty acids upon extracellular polysaccharide synthesis, are shown in table 1, 2, 3 and 4.”
# [12] = system: S. mutans JC-2; experiment: as above; assay type: cell-based, Streptococcus mutans; details: 1 mM
# Procedure: as §1, with “quantified.” for “quantified. So the experimental results that represent inhibitory effect of medium-chain fatty acids upon extracellular polysaccharide synthesis, are shown in table 1, 2, 3 and 4.”
# [13] = system: cariogenic plaque bacteria (standard strains); experiment: Inhibitory effect of bacterial growth, standard strains; assay type: cell-based, Streptococcus, Lactobacillus and Actinomyces; details: ranking; FIG. 3
# Procedure: In order to evaluate how medium-chain fatty acids influence bacterial growth of cariogenic plaque bacteria, the influence on each bacteria was evaluated after selecting seven kinds of bacterial strains as standard bacteria among cariogenic plaque bacteria. […] The results that medium-chain fatty acids have on influencing bacterial growth of cariogenic plaque bacteria is shown in FIG. 3. And the result of measuring inhibitory effect of bacterial growth of 20 kinds of cariogenic plaque bacteria separated from the human oral cavities is shown in FIG. 4.
smiles,measurement,setting,value
"CCCCCCCCC(=O)[O-].[Na+] [C9, sodium nonanoate]","inhibitory effect of extracellular polysaccharide synthesis, sequence",[1],sodium laurate>sodium capriate>sodium nonanoate
same,"inhibitory effect of acid production, sequence",[2],sodium laurate>sodium capriate>sodium nonanoate
same,inhibition at 1000 µM,[3],32 to 82%
same,"Extracellular polysaccharide, insoluble","[4]; 1 mM, 2% glucose, 24-48 hours, control 5.3 ± 0.5",3.8 ± 0.5 µg/mL
same,"Extracellular polysaccharide, soluble","[4]; 1 mM, 2% glucose, 24-48 hours, control 43.6 ± 7.0",31.9 ± 4.0 µg/mL
same,inhibition at 1000 µM,"[4]; Lacticaseibacillus casei, ATCC4646, read-out: Inhibitory rate, soluble",27%
same,"Extracellular polysaccharide, insoluble",[5]; control 5.9 ± 0.4,5.1 ± 0.5 µg/mL
same,"Extracellular polysaccharide, soluble",[5]; control 67.3 ± 4.5,70.1 ± 3.3 µg/mL
same,"Extracellular polysaccharide, soluble","[6]; Table 1, 1 mM",2.0 ± 0.7 µg/mL
same,"Extracellular polysaccharide, soluble","[6]; Table 2, 1 mM",4.6 ± 0.2 µg/mL
same,"Extracellular polysaccharide, soluble","[6]; Table 3, 1 mM",8.2 ± 0.4 µg/mL
same,inhibition at 1000 µM,[7],27%
same,"Extracellular polysaccharide, insoluble","[8]; 2% glucose, 24-48 hours, control 0.6 ± 0.3",0.5 ± 0.2 µg/mL
same,"Extracellular polysaccharide, soluble","[8]; 2% glucose, 24-48 hours, control 25.9 ± 4.3",17.4 ± 8.9 µg/mL
same,inhibition at 1000 µM,"[8]; vs control, read-out: Inhibitory rate, soluble",33%
same,"Extracellular polysaccharide, insoluble",[9]; control 2.1 ± 0.2,1.4 ± 0.5 µg/mL
same,"Extracellular polysaccharide, soluble",[9]; control 222.8 ± 3.3,241.6 ± 3.9 µg/mL
same,"Extracellular polysaccharide, insoluble","[10]; 2% glucose, 24-48 hours, control 0.8 ± 0.3",0.6 ± 0.2 µg/mL
same,"Extracellular polysaccharide, soluble","[10]; 2% glucose, 24-48 hours, control 74.6 ± 1.8",50.8 ± 12.2 µg/mL
same,inhibition at 1000 µM,"[10]; Streptococcus mutans, 10449, vs control, read-out: Inhibitory rate, soluble",32%
same,"Extracellular polysaccharide, insoluble","[11]; 2% glucose, 24-48 hours, control 0.5 ± 0.1",0.3 ± 0.1 µg/mL
same,inhibition at 1000 µM,"[11]; Streptococcus mutans, vs control, read-out: Inhibitory rate, soluble",75%
same,"Extracellular polysaccharide, insoluble","[12]; 2% glucose, 24-48 hours, control 1.1 ± 0.2",0.9 ± 0.3 µg/mL
same,"Extracellular polysaccharide, soluble","[12]; 2% glucose, 24-48 hours, control 34.4 ± 3.9",6.2 ± 3.5 µg/mL
same,inhibition at 1000 µM,"[12]; Streptococcus mutans, JC2, vs control, read-out: Inhibitory rate, soluble",82%
same,"inhibitory effect of bacterial growth, sequence",[13],sodium laurate>sodium capriate>sodium nonanoate
"CCCCCCCCCC(=O)O [C10, sodium capriate]","inhibitory effect of extracellular polysaccharide synthesis, sequence",[1],sodium laurate>sodium capriate>sodium nonanoate
same,"inhibitory effect of acid production, sequence",[2],sodium laurate>sodium capriate>sodium nonanoate
same,"inhibitory effect of bacterial growth, sequence",[13],sodium laurate>sodium capriate>sodium nonanoate
